Assay results taken from PubChem BioAssay (NCI).
“And” between values parts separate entries of the source, which are not always exact repeats. Identical values can stand only once.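 Dose response: 5 concentrations. Exposure: 48 h. Format: 96-well plates. Endpoint: linear interpolation; highest concentration if not reached. Here, GI50 denotes the concentration required for 50% inhibition of growth. Definition used: TGI = concentration required for complete inhibition of growth.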 *1 amine or outer side, *2 acyl side, *3 side chain or, on linkers, in order; H or OH if unused. Where a SMILES comes first, the peptide text is derived from it. Bridges are numbered along the chain shown (N, C = ends). Roman numbers before positions name the chains, in order. [ ]: non-standard residue; d: D form. Actinocin(9to1) = Cc1c2oc3c(C)ccc(C(=O)[*:1])c3nc-2c(C(=O)[*:2])c(N)c1=O; NMeF = CN[CH](Cc1ccccc1)C(=O)O; Sar = CNCC(=O)O

Experiments:
Assay in all cases: NCI-60 cell line screen, 48 h
[1] = tested on: BT-549 breast
[2] = tested on: ACHN renal
[3] = tested on: NCI-H226 lung
[4] = tested on: HCT-15 colon
[5] = tested on: M14 melanoma
[6] = tested on: HOP-92 NSCLC
[7] = tested on: SK-MEL-28 melanoma
[8] = tested on: OVCAR-5 ovarian
[9] = tested on: TK-10 renal
[10] = tested on: MALME-3M melanoma

| SMILES | GI50 [1] | TGI [1] | GI50 [2] | TGI [2] | GI50 [3] | TGI [3] | GI50 [4] | TGI [4] | GI50 [5] | TGI [5] | GI50 [6] | TGI [6] | GI50 [7] | TGI [7] | GI50 [8] | TGI [8] | GI50 [9] | TGI [9] | GI50 [10] | TGI [10] |
| --- | --- | --- | --- | --- | --- | --- | --- | --- | --- | --- | --- | --- | --- | --- | --- | --- | --- | --- | --- | --- |
| N#CC1C=Cc2c(ccc3ccccc23)N1C(=O)c1ccccc1 (configuration not stated) | 2.29 µM | > 60.1 µM | 0.352 µM | > 100 µM | 1.34 µM | > 100 µM | 0.184 µM | > 100 µM | 0.209 µM | > 100 µM | 3.1 µM | > 100 µM | 0.723 µM | > 100 µM | 0.519 µM | > 100 µM | 3.78 µM | > 65.8 µM |  |  |
| Nc1ncc(-c2cccc(S(N)(=O)=O)c2)c2scc(-c3ccc(F)c(Cl)c3)c12 | 7.69 µM | 15.1 µM | 6.36 µM | > 25 µM | 5.71 µM | 15.1 µM | 6.59 µM | > 25 µM | 7.54 µM | 16.8 µM | 5.14 µM | 18.4 µM | 8.8 µM | > 23.3 µM | 9.09 µM | > 22.2 µM | 6.58 µM | 16.4 µM | 6.94 µM | 16.6 µM |
| C[C@@H](Nc1nc(Nc2ccc(F)c(Cl)c2)nc2ccccc12)C1CC1 | 2.51 µM | 7.3 µM | 4.11 µM | 17.3 µM | 6.37 µM | 35.9 µM | 2.39 µM | 8.14 µM | 1.87 µM | 4.12 µM | 1.6 µM | 5.79 µM | 2.86 µM | 11.8 µM | 3.73 µM | 16 µM | 6.96 µM | 20.3 µM | 1.66 µM | 3.65 µM |
| CC(C)(C)c1ccc(NS(=O)(=O)c2ccc3nc(NC(=O)c4cnccn4)[nH]c3c2)cc1 | 6.15 µM | 22.3 µM | 2.21 µM | 7.63 µM | 2.27 µM | 8.19 µM | 0.774 µM | 14.6 µM | 2.42 µM | 17.6 µM | 1.5 µM | 5.92 µM | 3.57 µM | 17.5 µM | 5.61 µM | 19 µM | 8.84 µM | 23.4 µM | 1.06 µM | 13.1 µM |
| C[C@@H]1COCCN1c1cc(C2(O)C[C@H]3CC[C@@H](C2)O3)c2cnn(-c3ccn[nH]3)c2n1 (some centres not stated) | 0.049 µM | 0.784 µM | 0.0316 µM | 0.353 µM | 0.0448 µM | 0.528 µM | 0.0394 µM | > 42.2 µM | 0.0383 µM | 0.785 µM | 0.114 µM | 0.879 µM | 0.251 µM | 2.1 µM | 0.0977 µM |  | 0.0515 µM | 1.01 µM | 0.0656 µM | 0.462 µM |
| Cc1ccc(-c2cc(O)c(-c3ccc(C)cc3C)cc2O)c(C)c1 | 7.56 µM | 26.4 µM | 8.17 µM | 23 µM | 3.11 µM | 19.2 µM | 0.54 µM | 18.9 µM | 6.58 µM | 19.9 µM | 5.44 µM | 28.9 µM | 10.8 µM | 25.5 µM | 18 µM | 33.5 µM | 11.7 µM | 42.2 µM | 12.9 µM | 28.2 µM |
| CC[C@H](C)C(=O)O[C@H]1C[C@H](O)C=C2C=C[C@H](C)[C@H](CC[C@@H](O)C[C@@H](O)CC(=O)O)[C@H]21 | > 100 µM | > 100 µM | > 100 µM | > 100 µM | > 100 µM | > 100 µM | > 100 µM | > 100 µM | > 100 µM | > 100 µM | 23 µM | > 100 µM | > 100 µM | > 100 µM | > 100 µM | > 100 µM | > 100 µM | > 100 µM | > 100 µM | > 100 µM |
| COc1ccc2ccc3oc([N+](=O)[O-])cc3c2c1 | 0.194 µM | 0.606 µM | 0.0402 µM | 1.44 µM | 0.296 µM | 3.22 µM | 0.218 µM | 1.27 µM | 0.115 µM | 0.307 µM | 0.155 µM | 0.506 µM | 0.202 µM | 0.54 µM | 0.386 µM | 7.68 µM | 0.56 µM | 6.52 µM | 0.187 µM | 0.393 µM |
| O=[N+]([O-])c1cccc2nccc(NCCCO)c12 |  | 21.6 µM |  | 53.5 µM |  | 50.6 µM |  | 21.2 µM |  | 25.6 µM |  |  |  | 26.5 µM |  | 35.6 µM |  | 52.3 µM |  | 22.1 µM |
| O=C1OCC2=C1C(c1ccccc1)c1cc3c(cc1N2CCO)OCCO3 (configuration not stated) | 0.465 µM | > 13.7 µM | 0.493 µM | > 50 µM | 10.8 µM | > 50 µM | 0.518 µM | > 50 µM | 0.23 µM | 1.66 µM |  |  | 8.24 µM | > 50 µM | 2.12 µM | > 50 µM | 1.27 µM |  | > 50 µM | > 50 µM |
| CCN1CCC(O)(/C=C/c2ccc(OC)cc2)C(C(=O)/C=C/c2ccc(OC)cc2)C1 (configuration not stated) |  | 28.9 µM |  | 26.6 µM |  | 29.7 µM |  |  |  | 34.1 µM |  | 21.3 µM |  | 24.4 µM |  | 28.8 µM |  | 26.7 µM |  | 32.8 µM |
| Cc1c([N+](=O)[O-])oc2ccc3ccccc3c12 |  | > 100 µM |  | > 100 µM |  | > 100 µM |  | > 100 µM |  | > 100 µM |  | > 100 µM |  | > 100 µM |  | > 100 µM |  | > 100 µM |  |  |
| Cc1c2oc3c(C)ccc(C(=O)NC4C(=O)NC(C(C)C)C(=O)N5CCCC5C(=O)N(C)CC(=O)N(C)C(Cc5ccccc5)C(=O)OC4C)c3nc-2c(C(=O)NC2C(=O)NC(C(C)C)C(=O)N3CCCC3C(=O)N(C)CC(=O)N(C)C(Cc3ccccc3)C(=O)OC2C)c(N)c1=O (configuration not stated) (I: TVP[Sar][NMeF] / II: TVP[Sar][NMeF]; ester I:1-I:C, II:1-II:C; linker I:N-II:N via Actinocin(9to1); configuration not given here) |  | 0.151 µM |  | > 1 µM |  |  | < 0.0147 µM and 0.0622 µM | > 31.6 µM |  | 0.126 µM |  | < 0.0476 µM and 0.0606 µM |  | 0.06 µM | < 0.01 µM and 0.0335 µM | 2.01 µM and > 0.41 µM | < 0.01 µM and 0.049 µM | > 1 µM |  | < 0.01 µM and 0.0493 µM |
| CC(=O)/C(=C/N1CCNC1=S)C(=O)Nc1ccccc1C |  | > 100 µM |  | > 100 µM |  | > 100 µM |  | > 100 µM |  | > 100 µM |  | > 100 µM |  | > 100 µM |  | > 100 µM |  | > 100 µM |  |  |
